# Legend:
# amyloid plaques = experiment: Autoradiography using postmortem brain section of patient with Alzheimer's disease (Example 7); format: binding, human (Alzheimer's disease patient); conditions: brain section (temporal lobe) of Alzheimer's disease patient; 0.37 MBq/100 μL, 1 hour
# Experimental: A postmortem autopsy brain section (temporal lobe) of a patient with Alzheimer's disease was incubated together with each of [^18F]E3, [^18F]D3, [^18F]E1, and [^18F]E2 (0.37 MBq/100 μL each) at room temperature for 1 hour. The resultant was washed with a 50 volume % ethanol aqueous solution (2 minutes×2) and water (2 minutes×2), and after drying, the section was contacted with BAS imaging plate (from Fujifilm Corporation) for 1.5 hours. The image of autoradiography was obtained using BAS5000 scanner system (from Fujifilm Corporation).
# A section adjacent to the brain section used was immunostained in the following manner.
# First, a paraffin-embedded brain section of the Alzheimer's disease patient (temporal lobe, 6 μm in thickness) was incubated with xylene (15 minutes×2), ethanol (1 minute×2), a 90 volume % ethanol aqueous solution (1 minute×2), and a 70 volume % ethanol aqueous solution (1 minute×1) in that order for complete deparaffinization, and then washed in water (2.5 minutes×2). Thereafter, the section was subjected to autoclave treatment for 15 minutes in 0.01 mol/L citrate buffer solution (pH 6.0). The resultant was incubated in PBS-Tween20 (5 minutes×2), and a mouse anti-Aβ1-42 primary monoclonal antibody (from Wako Pure Chemical Industries Ltd.) was then added thereto, which was then incubated at room temperature overnight. The resultant was incubated in PBS-Tween20 (2 minutes×3), and a biotin-goat anti-mouse IgG (from Funakoshi Co., Ltd.) was then added thereto, which was then incubated at room temperature for 1 hour. The resultant was incubated in PBS-Tween20 (5 minutes×3), and a streptavidin-peroxidase complex (from Funakoshi Co., Ltd.) was added thereto, which was then incubated at room temperature for 30 minutes. In addition, the resultant was incubated in PBS-Tween20 (2 minutes×3); 3,3′-diaminobenzidine was added thereto, which was then incubated at room temperature for 30 minutes; and after washing with water, the section was observed under a microscope to provide an immunostained image (FIG. 10).
# [1] = In vivo radioactivity distribution experiment (Example 8); conditions: ddY mice, tail vein, SD in parenthesis
# Experimental: Through the tail vein of ddY mice (male, 5 week-old) was injected each of a 10 volume % ethanol-containing saline solution of [^18F]E3 (45.4 kBq, 100 μL), a 10 volume % ethanol-containing saline solution of [^18F]D3 (38.2 kBq, 100 μL), a 10 volume % ethanol-containing saline solution of [^18F]E1 (45.1 kBq, 100 μL), and a 10 volume % ethanol-containing saline solution of [^18F]E2 (40.6 kBq, 100 μL). Five mice were used for each group and sacrificed 2, 10, 30, and 60 minutes after administration to remove major organs. The blood and organs were weighed and further measured for radioactivity using a γ counter. The amount of radioactivity per unit mass was measured in each organ to evaluate radioactivity distribution.
molecule,measurement,setting,value
"4-(7-(2-[^18F]Fluoroethoxy)quinoxalin-2-yl)-N,N-dimethylaniline [[^18F]E3]",visualization of gray matter / amyloid plaques by autoradiography,amyloid plaques,amyloid plaques were visualized
same,"Radioactivity Amount, Blood",[1]; 2 min. after,2.26 (0.21) % injected dose/g
same,"Radioactivity Amount, Blood",[1]; 10 min. after,1.91 (0.68) % injected dose/g
same,"Radioactivity Amount, Blood",[1]; 30 min. after,2.42 (0.17) % injected dose/g
same,"Radioactivity Amount, Blood",[1]; 60 min. after,2.38 (0.25) % injected dose/g
same,"Radioactivity Amount, Bone",[1]; 2 min. after,2.45 (0.43) % injected dose/g
same,"Radioactivity Amount, Bone",[1]; 10 min. after,2.20 (0.09) % injected dose/g
same,"Radioactivity Amount, Bone",[1]; 30 min. after,2.10 (0.39) % injected dose/g
same,"Radioactivity Amount, Bone",[1]; 60 min. after,2.02 (0.36) % injected dose/g
same,"Radioactivity Amount, Brain",[1]; 2 min. after,5.78 (0.60) % injected dose/g
same,"Radioactivity Amount, Brain",[1]; 10 min. after,3.82 (0.33) % injected dose/g
same,"Radioactivity Amount, Brain",[1]; 30 min. after,1.85 (0.09) % injected dose/g
same,"Radioactivity Amount, Brain",[1]; 60 min. after,1.48 (0.07) % injected dose/g
same,"Radioactivity Amount, Heart",[1]; 2 min. after,6.12 (0.79) % injected dose/g
same,"Radioactivity Amount, Heart",[1]; 10 min. after,3.48 (0.56) % injected dose/g
same,"Radioactivity Amount, Heart",[1]; 30 min. after,2.43 (0.12) % injected dose/g
same,"Radioactivity Amount, Heart",[1]; 60 min. after,2.22 (0.08) % injected dose/g
same,"Radioactivity Amount, Intestine",[1]; 2 min. after,3.24 (0.43) % injected dose/g
same,"Radioactivity Amount, Intestine",[1]; 10 min. after,7.95 (1.28) % injected dose/g
same,"Radioactivity Amount, Intestine",[1]; 30 min. after,16.2 (1.71) % injected dose/g
same,"Radioactivity Amount, Intestine",[1]; 60 min. after,17.9 (3.64) % injected dose/g
same,"Radioactivity Amount, Kidney",[1]; 2 min. after,8.65 (0.88) % injected dose/g
same,"Radioactivity Amount, Kidney",[1]; 10 min. after,5.19 (0.88) % injected dose/g
same,"Radioactivity Amount, Kidney",[1]; 30 min. after,3.30 (0.27) % injected dose/g
same,"Radioactivity Amount, Kidney",[1]; 60 min. after,3.51 (1.21) % injected dose/g
same,"Radioactivity Amount, Liver",[1]; 2 min. after,11.9 (1.35) % injected dose/g
same,"Radioactivity Amount, Liver",[1]; 10 min. after,11.7 (0.80) % injected dose/g
same,"Radioactivity Amount, Liver",[1]; 30 min. after,7.11 (1.56) % injected dose/g
same,"Radioactivity Amount, Liver",[1]; 60 min. after,5.30 (0.82) % injected dose/g
same,"Radioactivity Amount, Lung",[1]; 2 min. after,5.74 (0.48) % injected dose/g
same,"Radioactivity Amount, Lung",[1]; 10 min. after,4.02 (0.32) % injected dose/g
same,"Radioactivity Amount, Lung",[1]; 30 min. after,2.80 (0.15) % injected dose/g
same,"Radioactivity Amount, Lung",[1]; 60 min. after,2.20 (0.14) % injected dose/g
same,"Radioactivity Amount, Pancreas",[1]; 2 min. after,6.82 (0.80) % injected dose/g
same,"Radioactivity Amount, Pancreas",[1]; 10 min. after,3.51 (0.37) % injected dose/g
same,"Radioactivity Amount, Pancreas",[1]; 30 min. after,2.31 (0.19) % injected dose/g
same,"Radioactivity Amount, Pancreas",[1]; 60 min. after,1.60 (0.18) % injected dose/g
same,"Radioactivity Amount, Spleen",[1]; 2 min. after,3.67 (0.40) % injected dose/g
same,"Radioactivity Amount, Spleen",[1]; 10 min. after,2.89 (0.37) % injected dose/g
same,"Radioactivity Amount, Spleen",[1]; 30 min. after,2.31 (0.21) % injected dose/g
same,"Radioactivity Amount, Spleen",[1]; 60 min. after,1.74 (0.05) % injected dose/g
same,"Radioactivity Amount, Stomach*",[1]; 2 min. after,1.07 (0.20) % injected dose per organ
same,"Radioactivity Amount, Stomach*",[1]; 10 min. after,2.54 (0.88) % injected dose per organ
same,"Radioactivity Amount, Stomach*",[1]; 30 min. after,2.02 (0.63) % injected dose per organ
same,"Radioactivity Amount, Stomach*",[1]; 60 min. after,1.42 (0.22) % injected dose per organ
"Nc1ccc(-c2cnc3ccc(OCC[18F])cc3n2)cc1 [[^18F]E1, 4-(7-(2-[^18F]Fluoroethoxy)quinoxalin-2-yl)aniline]",visualization of gray matter / amyloid plaques by autoradiography,amyloid plaques,did not visualize the gray matter but rather strongly visualized the white matter
same,"Radioactivity Amount, Liver",[1]; 2 min. after,9.18 (1.45) % injected dose/g
same,"Radioactivity Amount, Liver",[1]; 10 min. after,12.1 (1.82) % injected dose/g
same,"Radioactivity Amount, Liver",[1]; 30 min. after,8.76 (1.01) % injected dose/g
same,"Radioactivity Amount, Liver",[1]; 60 min. after,6.52 (0.93) % injected dose/g
